Each block holds one compound with its values, some of them ahead of it.
What was measured:
[1] = Microsomal stability (phase I), human; format: in vitro ADME; details: human liver microsomes, up to 50 minutes, 37 °C
Procedure: (§1) Microsomal stability (phase I) assay.
Metabolic stability under oxidative conditions was measured in liver microsomes from different
time up to 50 minutes (HLM) or 60 minutes (MLM) at 37 °C. Based on the compound half-life t1/2,
the in vitro intrinsic clearance CLint was calculated. […]

[2] = PAMPA (parallel artificial membrane permeability assay); format: in vitro ADME; details: pH 7.4, 500 µM, 16 hours
Procedure: masses and 0.02 Da for fragment ions. FDR was adjusted to 1% on peptide spectrum match […]
as §1
Metabolic stability under oxidative conditions was measured in liver microsomes from different species by LC/MS-based measuring of depletion of compound at a concentration of 3 µM over time up to 50 minutes (HLM) or 60 minutes (MLM) at 37 °C. Based on the compound half-life t1/2, the in vitro intrinsic clearance CLint was calculated.
Plasma stability was measured by LC/MS-based determination of the percentage of remaining compounds at a concentration of 5 µM after incubation in plasma obtained from different species […]
Assessment of plasma protein binding was measured by equilibrium dialysis by incubating plasma with the compound of interest at a concentration of 5 µM for 6 h at 37 °C followed by LC/MS-based determination of final compound concentrations.
PAMPA (Parallel artificial membrane permeability assay). […]
temperature in a wet chamber, the optical density of the solution in the receiver well was measured between 250 and 500 nm in intervals of 10 nm. The percent flux was calculated from […]

[3] = In vivo pharmacokinetics in mice
Procedure: In vivo pharmacokinetics.
To determine the pharmacokinetics of 19h, totally 36 male RjOrl:SWISS (CD1) mice, age 8−10 weeks, body weight (bw) between 29 and 31 g, were purchased from Janvier, Saint-Berthevin Cedex, France. Mice were fed ad libitum with Allein-Futter für Ratten-/Mäusehaltung from Sniff Special Diets GmbH, Germany. They had free access to water and were kept in a 12 h day/night rhythm. All experiments were approved by the local authorities. Pharmacokinetics were studied for the oral (PO), intraperitoneal (IP), and intravenous (IV) route of administration. For the oral and […]
intraperitoneal routes, a stock solution of 2 mg/mL of 19h in a solution consisting of 10% of DMSO and to 90% of an aqueous solution of 30% 2-hydroxypropyl-β-cyclodextrin was prepared. To reach doses of 20 mg/kg bw, 300 μL were administered per 30 g of mouse bw. For the intravenous route of administration, a 2 mg/mL DMSO solution was prepared and 30 μL were applied to a 30 g mouse to reach a concentration of 2 mg/kg bw. Mice were sacrificed 5, 15, 45, and 135 min after administration of the test compound, and approximately 100 μL of blood was taken from the left heart chamber. Three mice were analyzed per time point and route of administration (PO, IP and IV), respectively. Immediately after sampling, blood was centrifuged at 16200g for 10 min at 4 °C and plasma was stored at -80 °C until LC/MS analysis of 19h. Prior to LC-MS/MS analysis, plasma proteins were precipitated with acetonitrile containing an internal standard, and samples were filtered. A calibration curve was obtained from spiked blank plasma samples. 19h was measured using a Shimadzu UPLC system connected to a QTrap 4000 hybrid triple quadrupole/linear ion trap mass spectrometer (AB Sciex). The regression equation of the calibration curve was used to calculate plasma concentrations. Pharmacokinetic parameters were calculated using the PKSolver software2.

ErbB4 = ErbB4 (Homo sapiens, UniProt Q15303); test: SelectScreen kinase profiling, ErbB4; format: biochemical; details: mean ± SD of one measurement in duplicates
Chain of ErbB4 (Q15303 26-1308): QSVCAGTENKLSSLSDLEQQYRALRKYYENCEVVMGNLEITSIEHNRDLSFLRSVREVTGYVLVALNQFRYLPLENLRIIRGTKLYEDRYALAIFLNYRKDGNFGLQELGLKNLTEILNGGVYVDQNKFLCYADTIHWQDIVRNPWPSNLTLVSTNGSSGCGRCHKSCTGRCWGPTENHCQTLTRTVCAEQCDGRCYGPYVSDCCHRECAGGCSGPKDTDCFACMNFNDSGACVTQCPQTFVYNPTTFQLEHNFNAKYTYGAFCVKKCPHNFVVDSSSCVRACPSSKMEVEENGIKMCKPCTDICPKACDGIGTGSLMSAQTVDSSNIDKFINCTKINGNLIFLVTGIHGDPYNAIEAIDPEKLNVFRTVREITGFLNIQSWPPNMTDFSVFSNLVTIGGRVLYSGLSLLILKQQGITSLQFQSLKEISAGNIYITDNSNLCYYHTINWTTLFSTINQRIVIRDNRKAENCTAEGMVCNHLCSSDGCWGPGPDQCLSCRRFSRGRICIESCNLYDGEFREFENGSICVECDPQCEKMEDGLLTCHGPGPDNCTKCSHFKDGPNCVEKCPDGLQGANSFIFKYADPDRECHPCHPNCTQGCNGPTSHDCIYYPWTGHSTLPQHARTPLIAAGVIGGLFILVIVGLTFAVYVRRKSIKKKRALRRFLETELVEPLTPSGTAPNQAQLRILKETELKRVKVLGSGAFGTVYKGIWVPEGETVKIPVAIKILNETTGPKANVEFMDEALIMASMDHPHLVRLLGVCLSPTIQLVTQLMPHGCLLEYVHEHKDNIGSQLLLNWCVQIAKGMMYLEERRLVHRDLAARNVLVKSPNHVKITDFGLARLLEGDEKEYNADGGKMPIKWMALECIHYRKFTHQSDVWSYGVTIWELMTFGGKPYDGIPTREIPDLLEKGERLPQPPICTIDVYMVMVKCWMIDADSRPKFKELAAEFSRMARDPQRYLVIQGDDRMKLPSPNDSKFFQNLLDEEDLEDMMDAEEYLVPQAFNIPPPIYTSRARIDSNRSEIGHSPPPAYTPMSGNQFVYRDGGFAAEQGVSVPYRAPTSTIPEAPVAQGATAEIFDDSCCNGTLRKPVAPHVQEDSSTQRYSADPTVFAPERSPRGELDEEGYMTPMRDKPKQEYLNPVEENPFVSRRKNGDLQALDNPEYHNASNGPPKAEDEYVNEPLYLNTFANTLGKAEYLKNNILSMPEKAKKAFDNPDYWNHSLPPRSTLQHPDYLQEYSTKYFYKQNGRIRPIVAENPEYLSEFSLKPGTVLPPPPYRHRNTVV
Procedure: (§2) Kinase profiling of compound 17a at a concentration of 1 µM generated with the SelectScreen® Profiling Service from Life Technologies.
(§3) Figure S2. Kinase profiling of compound 17a, Illustration as waterfall plot. 9 Kinases harboring a Cysteine isostructural to Cys797 in EGFR are highlighted
(§4) Kinase % inhibition Kinase % inhibition […]
(§5) aValues are the mean ± SD of one measurement in duplicates; bKinases harboring a Cysteine isostructural to Cys797 […]
(§6) (1 picture or pasted object on this page, not shown here)

JAK3 = JAK3 (Homo sapiens, UniProt P52333); test: SelectScreen kinase profiling, JAK3; format: biochemical; details: mean ± SD of one measurement in duplicates
Chain of JAK3 (P52333 whole entry): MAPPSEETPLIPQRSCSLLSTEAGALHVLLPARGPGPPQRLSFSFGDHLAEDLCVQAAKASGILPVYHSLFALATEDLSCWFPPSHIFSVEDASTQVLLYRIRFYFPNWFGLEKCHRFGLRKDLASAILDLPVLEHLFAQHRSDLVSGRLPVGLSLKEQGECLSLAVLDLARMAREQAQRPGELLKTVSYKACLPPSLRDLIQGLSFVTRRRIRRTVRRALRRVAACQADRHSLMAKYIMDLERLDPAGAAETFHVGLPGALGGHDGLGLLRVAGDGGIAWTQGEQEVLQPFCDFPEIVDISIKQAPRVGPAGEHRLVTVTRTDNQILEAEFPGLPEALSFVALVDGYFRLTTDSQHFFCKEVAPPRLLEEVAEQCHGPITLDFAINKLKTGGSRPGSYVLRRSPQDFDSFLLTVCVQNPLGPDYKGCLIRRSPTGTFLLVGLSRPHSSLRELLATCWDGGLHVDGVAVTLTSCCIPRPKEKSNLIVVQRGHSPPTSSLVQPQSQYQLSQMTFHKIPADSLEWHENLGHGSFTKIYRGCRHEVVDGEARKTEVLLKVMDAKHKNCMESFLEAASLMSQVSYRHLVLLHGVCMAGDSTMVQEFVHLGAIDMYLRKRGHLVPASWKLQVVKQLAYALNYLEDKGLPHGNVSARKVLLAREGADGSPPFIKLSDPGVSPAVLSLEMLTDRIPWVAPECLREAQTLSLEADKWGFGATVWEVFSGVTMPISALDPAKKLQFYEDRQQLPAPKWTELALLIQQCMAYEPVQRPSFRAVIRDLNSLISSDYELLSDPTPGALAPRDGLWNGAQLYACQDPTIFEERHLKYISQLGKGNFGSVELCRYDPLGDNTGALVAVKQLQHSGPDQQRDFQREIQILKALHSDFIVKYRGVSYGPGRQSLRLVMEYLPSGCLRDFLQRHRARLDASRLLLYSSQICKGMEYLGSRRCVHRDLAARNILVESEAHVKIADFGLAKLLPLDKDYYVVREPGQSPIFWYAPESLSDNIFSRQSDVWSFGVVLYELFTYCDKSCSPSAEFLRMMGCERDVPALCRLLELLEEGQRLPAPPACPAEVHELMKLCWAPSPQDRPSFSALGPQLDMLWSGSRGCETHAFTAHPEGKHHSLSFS
Procedure: as §2, §3, §4, §5, §6

EGFR-L858R = EGFR-L858R (Homo sapiens, UniProt P00533, L858R); test: SelectScreen kinase profiling, EGFR-L858R; format: biochemical; details: mean ± SD of one measurement in duplicates
Chain of EGFR-L858R (P00533 25-1210 L858R): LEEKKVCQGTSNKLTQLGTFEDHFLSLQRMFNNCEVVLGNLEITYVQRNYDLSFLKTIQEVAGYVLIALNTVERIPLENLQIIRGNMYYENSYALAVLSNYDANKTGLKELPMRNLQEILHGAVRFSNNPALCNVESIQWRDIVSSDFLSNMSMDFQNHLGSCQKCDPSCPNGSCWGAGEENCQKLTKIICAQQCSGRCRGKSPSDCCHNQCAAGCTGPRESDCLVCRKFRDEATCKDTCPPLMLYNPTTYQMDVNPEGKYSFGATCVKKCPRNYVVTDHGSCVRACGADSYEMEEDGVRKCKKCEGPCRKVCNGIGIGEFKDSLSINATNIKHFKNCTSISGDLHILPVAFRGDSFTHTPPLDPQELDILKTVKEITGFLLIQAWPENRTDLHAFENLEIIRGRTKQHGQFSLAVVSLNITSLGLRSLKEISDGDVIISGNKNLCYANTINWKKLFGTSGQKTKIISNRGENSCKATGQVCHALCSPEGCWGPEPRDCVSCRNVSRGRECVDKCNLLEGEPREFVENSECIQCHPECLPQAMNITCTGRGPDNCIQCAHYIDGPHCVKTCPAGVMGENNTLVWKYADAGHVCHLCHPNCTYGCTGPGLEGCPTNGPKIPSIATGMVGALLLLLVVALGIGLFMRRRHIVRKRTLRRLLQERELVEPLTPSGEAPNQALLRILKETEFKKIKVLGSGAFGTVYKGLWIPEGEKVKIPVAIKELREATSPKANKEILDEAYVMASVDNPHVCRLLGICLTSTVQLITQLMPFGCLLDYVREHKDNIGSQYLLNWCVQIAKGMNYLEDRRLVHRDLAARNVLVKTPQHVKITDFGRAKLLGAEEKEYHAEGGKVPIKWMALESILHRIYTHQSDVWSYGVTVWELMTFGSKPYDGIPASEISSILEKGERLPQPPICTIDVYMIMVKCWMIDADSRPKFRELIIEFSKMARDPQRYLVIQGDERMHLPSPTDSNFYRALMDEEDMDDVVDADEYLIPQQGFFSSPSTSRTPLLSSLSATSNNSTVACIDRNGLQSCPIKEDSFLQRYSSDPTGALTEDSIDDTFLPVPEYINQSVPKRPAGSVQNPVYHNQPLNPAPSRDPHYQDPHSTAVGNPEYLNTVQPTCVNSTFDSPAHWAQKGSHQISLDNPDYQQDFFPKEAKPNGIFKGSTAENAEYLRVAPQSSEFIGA
Procedure: as §2, §3, §4, §5, §6

Her2 = Her2 (Homo sapiens, UniProt P04626); test: SelectScreen kinase profiling, Her2; format: biochemical; details: mean ± SD of one measurement in duplicates
Chain of Her2 (P04626 23-1255): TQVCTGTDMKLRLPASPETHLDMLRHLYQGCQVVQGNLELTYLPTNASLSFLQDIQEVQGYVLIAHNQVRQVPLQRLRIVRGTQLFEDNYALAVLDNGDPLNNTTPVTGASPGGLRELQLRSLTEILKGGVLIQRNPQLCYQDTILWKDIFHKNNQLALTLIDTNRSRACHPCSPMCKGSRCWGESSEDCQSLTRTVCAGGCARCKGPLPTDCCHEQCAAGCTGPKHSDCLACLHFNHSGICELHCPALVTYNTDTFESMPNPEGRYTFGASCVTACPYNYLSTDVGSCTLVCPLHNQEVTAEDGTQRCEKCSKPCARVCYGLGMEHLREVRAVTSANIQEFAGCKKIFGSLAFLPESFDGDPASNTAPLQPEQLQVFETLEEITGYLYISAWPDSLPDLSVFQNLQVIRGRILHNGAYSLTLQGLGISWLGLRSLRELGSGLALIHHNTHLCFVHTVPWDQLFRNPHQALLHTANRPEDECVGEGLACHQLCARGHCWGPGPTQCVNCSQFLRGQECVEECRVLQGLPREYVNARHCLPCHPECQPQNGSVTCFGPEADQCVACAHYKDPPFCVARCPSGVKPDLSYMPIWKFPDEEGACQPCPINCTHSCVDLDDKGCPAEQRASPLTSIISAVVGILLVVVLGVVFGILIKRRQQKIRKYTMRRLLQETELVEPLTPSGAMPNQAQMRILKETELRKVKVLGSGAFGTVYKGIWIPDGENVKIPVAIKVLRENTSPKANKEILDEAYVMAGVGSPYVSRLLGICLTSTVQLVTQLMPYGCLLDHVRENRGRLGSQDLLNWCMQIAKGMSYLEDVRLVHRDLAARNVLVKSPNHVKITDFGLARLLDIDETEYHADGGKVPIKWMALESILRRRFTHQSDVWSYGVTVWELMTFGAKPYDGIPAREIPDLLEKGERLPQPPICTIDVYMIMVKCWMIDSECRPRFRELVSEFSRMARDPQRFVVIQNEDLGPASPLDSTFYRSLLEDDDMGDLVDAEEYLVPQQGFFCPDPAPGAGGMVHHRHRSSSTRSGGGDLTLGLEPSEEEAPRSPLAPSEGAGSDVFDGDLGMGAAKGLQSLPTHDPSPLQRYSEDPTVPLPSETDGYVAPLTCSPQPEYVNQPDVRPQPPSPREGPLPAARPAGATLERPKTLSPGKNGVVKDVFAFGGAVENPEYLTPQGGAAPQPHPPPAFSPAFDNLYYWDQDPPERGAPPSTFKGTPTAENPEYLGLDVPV
Procedure: as §2, §3, §4, §5, §6

[4] = male, RjOrl:SWISS (CD1), mouse, plasma, IP 20 mg kg-1
[5] = male, RjOrl:SWISS (CD1), mouse, plasma, IP 20 mg kg^–1
[6] = male, RjOrl:SWISS (CD1), mouse, plasma, IV 2 mg kg-1
[7] = male, RjOrl:SWISS (CD1), mouse, plasma, PO 20 mg kg-1

microsomal CLint at 3 µM [1]: 6.7 µL/min/mg
PAMPA flux [2]: 88%
F0-t ([3]; IP 20 mg kg-1): 258%
t1/2 ([3]; IP 20 mg kg-1): 1.2 h
Cmax, free ([3]; IP 20 mg kg^–1): 0.012 µM
F0-t ([3]; PO 20 mg kg-1): 9%
time blood plasma concentration maintained above in vitro EC50 in H1975 cells ([3]; after both IP and PO): more than two hours
AUC(0-t) [3, 4]: 2870 ng·h/mL
Cmax [3, 4]: 1770 ng/mL
AUC [3, 5]: 8.6 ng·h/mL
Cmax [3, 5]: 3.5 µM
AUC(0-t) [3, 6]: 111 ng·h/mL
C0 [3, 6]: 258 ng/mL
clearance [3, 6]: 250 mL/min/kg
Vd ([3]; male, RjOrl:SWISS (CD1), mouse, plasma, IV 2 mg kg-1, read-out: Vss): 16 L/kg
AUC(0-t) [3, 7]: 101 ng·h/mL
Cmax [3, 7]: 56 ng/mL
half-life ([3]; male, RjOrl:SWISS (CD1), mouse, plasma, ip, 20 mg/kg, IP 20 mg kg-1): 1.21 h
half-life ([3]; male, RjOrl:SWISS (CD1), mouse, plasma, iv, 2 mg/kg, IV 2 mg kg-1): 0.89 h
SMILES: C=CC(=O)Nc1cccc(-c2c(-c3ccc(N4CCN(C)CC4)cc3)[nH]c3ncnc(OCC(C)C)c23)c1 [Compound 19h]

inhibition at 1 µM (ErbB4): 100 ± 1%
inhibition at 1 µM (JAK3): 91 ± 2%
inhibition at 1 µM (EGFR-L858R): 89 ± 6%
inhibition at 1 µM (Her2): 82 ± 6%
SMILES: C=CC(=O)Nc1cccc(-c2c(-c3ccc(CN4CCN(C)CC4)cc3)[nH]c3ncnc(OC)c23)c1 [Compound 17a]

Source: article PMC6886544
